Experimental data from the NIST ThermoML archive (doi:10.1021/je101178u).
“And” between values parts separate entries of the source, which are not always exact repeats. Identical values can stand only once.

Settings: 307.15 K, Fluid (supercritical or subcritical phases); for mass density: Buoyancy - hydrostatic balance with magnetic suspension - one sinker; for viscosity: vibrating wire

CC [ethane]
Settings	mass density	viscosity
2134.4 kPa	30.049 kg/m3	0.01007 mPa·s
2134.5 kPa	30.051 kg/m3	0.01006 mPa·s
2653.6 kPa	39.629 kg/m3	0.01038 mPa·s
2653.7 kPa	39.631 kg/m3	0.01038 mPa·s
2674.2 kPa	40.039 kg/m3 and 40.038 kg/m3	0.01034 mPa·s
2674.3 kPa	40.04 kg/m3	0.01034 mPa·s
3138.1 kPa	50.006 kg/m3	0.01066 mPa·s
3138.2 kPa	50.008 kg/m3	0.01066 mPa·s
3138.4 kPa	50.012 kg/m3	0.01066 mPa·s
3539.6 kPa	60.147 kg/m3	0.01103 mPa·s
3539.8 kPa	60.154 kg/m3	0.01103 mPa·s
3815.6 kPa	68.316 kg/m3	0.01142 mPa·s
3821.7 kPa	68.511 kg/m3	0.01143 mPa·s
3889 kPa	70.711 kg/m3	0.01145 mPa·s
3892.4 kPa	70.823 kg/m3	0.01146 mPa·s
4150.5 kPa	80.267 kg/m3	0.01188 mPa·s
4151.6 kPa	80.309 kg/m3	0.01189 mPa·s
4152 kPa	80.328 kg/m3	0.01189 mPa·s
4152.4 kPa	80.342 kg/m3	0.01189 mPa·s
4328.6 kPa	88.031 kg/m3	0.01226 mPa·s
4329.5 kPa	88.072 kg/m3	0.01226 mPa·s
4330.1 kPa	88.099 kg/m3	0.01227 mPa·s
4330.4 kPa	88.116 kg/m3	0.01226 mPa·s
4331.5 kPa	88.167 kg/m3	0.01226 mPa·s
4514.6 kPa	97.86 kg/m3	0.01277 mPa·s
4516.2 kPa	97.954 kg/m3	0.01278 mPa·s
4517.4 kPa	98.024 kg/m3	0.01279 mPa·s
4518.3 kPa	98.079 kg/m3	0.01279 mPa·s
4519.2 kPa	98.129 kg/m3	0.01279 mPa·s
4557.7 kPa	100.499 kg/m3	0.01302 mPa·s
4558.1 kPa	100.521 kg/m3	0.01302 mPa·s
4736.3 kPa	113.82 kg/m3	0.01371 mPa·s
4736.7 kPa	113.852 kg/m3	0.01371 mPa·s
4939.2 kPa	140.104 kg/m3	0.01552 mPa·s
4939.3 kPa	140.112 kg/m3	0.01552 mPa·s
5008.9 kPa	160.457 kg/m3 and 160.473 kg/m3	0.01729 mPa·s
5019.4 kPa	165.641 kg/m3 and 165.625 kg/m3	0.01766 mPa·s
5019.5 kPa	165.654 kg/m3	0.01767 mPa·s
5042.9 kPa	182.964 kg/m3	0.01932 mPa·s
5043 kPa	183.065 kg/m3 and 183.021 kg/m3	0.01933 mPa·s and 0.01932 mPa·s
5050.1 kPa	191.037 kg/m3	0.02022 mPa·s
5050.2 kPa	191.169 kg/m3	0.02023 mPa·s
5051 kPa	192.154 kg/m3 and 192.131 kg/m3	0.02026 mPa·s
5051.1 kPa	192.228 kg/m3 and 192.185 kg/m3	0.02028 mPa·s
5058.7 kPa	202.521 kg/m3 and 202.456 kg/m3	0.02133 mPa·s and 0.02132 mPa·s
5058.8 kPa	202.654 kg/m3 and 202.599 kg/m3 and 202.583 kg/m3	0.02137 mPa·s and 0.02136 mPa·s and 0.02133 mPa·s
5060.1 kPa	204.501 kg/m3	0.02168 mPa·s
5060.2 kPa	204.534 kg/m3 and 204.598 kg/m3	0.02168 mPa·s
5060.3 kPa	204.743 kg/m3 and 204.709 kg/m3	0.02159 mPa·s and 0.02158 mPa·s
5060.4 kPa	204.805 kg/m3	0.02159 mPa·s
5062 kPa	207.173 kg/m3	0.02199 mPa·s
5062.1 kPa	207.31 kg/m3	0.02199 mPa·s
5062.2 kPa	207.441 kg/m3	0.022 mPa·s
5064.1 kPa	209.963 kg/m3 and 209.982 kg/m3 and 209.961 kg/m3	0.02215 mPa·s and 0.02216 mPa·s
5064.2 kPa	210.139 kg/m3 and 210.11 kg/m3	0.02219 mPa·s
5065.4 kPa	211.657 kg/m3 and 211.736 kg/m3	0.02255 mPa·s
5065.5 kPa	211.805 kg/m3	0.02255 mPa·s
5105 kPa	242.924 kg/m3 and 242.96 kg/m3	0.02579 mPa·s
5105.1 kPa	243 kg/m3	0.02579 mPa·s
5105.2 kPa	243.012 kg/m3	0.0258 mPa·s
5160.6 kPa	259.321 kg/m3	0.02781 mPa·s
5160.9 kPa	259.389 kg/m3	0.02781 mPa·s
5161 kPa	259.401 kg/m3 and 259.396 kg/m3	0.02781 mPa·s and 0.0278 mPa·s
5187.1 kPa	264.206 kg/m3	0.02852 mPa·s
5187.4 kPa	264.252 kg/m3	0.02852 mPa·s
5187.6 kPa	264.291 kg/m3	0.02852 mPa·s
5348.1 kPa	282.102 kg/m3	–
